Laboratory results: patent EP0819380A1, “Bacteriocidal, antibacterial and bacteriostatic composition” (priority 1996, dated 1998)
Where two headings read alike, the source gives them in different places.

What was measured:
[1] = system: herpes simplex I (HSV-1, strain VRIII); test: Inactivation of herpes simplex I (viral infectivity titer, CPE in Vero cells); assay type: cell-based; conditions: for Viral infectivity titer when contacted for an hour (TCID50/25 µl): room temperature, composition 0.5% butyl p-oxybenzoate
[2] = system: influenza virus type B (FluV-B, strain B/Lee/40); assay type: cell-based
mice = conditions: p.o.; cited from earlier work
Type HIV-1 (LAI strain) = test: Inactivation of HIV (infectivity titer in MT-4 cells); assay type: cell-based; conditions: summary of Table 6, concentration-dependent
[3] = Composition : Viral solution 1 : 4, 1 hour
[4] = Composition : Viral solution 1 : 9, 1 hour
[5] = Composition : Viral solution 1 : 99, 1 hour
[6] = mixing ratio 1:9, Contact Time 0 minute
[7] = mixing ratio 1:9, Contact Time 5 minutes
[8] = mixing ratio 1:9, Contact Time 15 minutes
[9] = mixing ratio 1:9, Contact Time 30 minutes
[10] = mixing ratio 1:9, Contact Time 1 hour

Row | Structure (SMILES) | Viral infectivity titer when contacted for an hour (TCID50/25 µl) [1, 3] | Viral infectivity titer when contacted for an hour (TCID50/25 µl) [1, 4] | Viral infectivity titer when contacted for an hour (TCID50/25 µl) [1, 5] | Viral infectivity titer for various contact time periods (TCID50/25 µl) [1, 6] | Viral infectivity titer for various contact time periods (TCID50/25 µl) [1, 7] | Viral infectivity titer for various contact time periods (TCID50/25 µl) [1, 8] | Viral infectivity titer for various contact time periods (TCID50/25 µl) [1, 9] | Viral infectivity titer for various contact time periods (TCID50/25 µl) [1, 10] | Viral infectivity titer when contacted for an hour (TCID50/25 µl) ([2]; FluV-B, Composition : Viral solution 1 : 99, 1 hour, room temperature, composition 0.5% butyl p-oxybenzoate) | Acute toxicity (LD-50) (mice) | inactivation effect against HIV (Type HIV-1 (LAI strain)) | Viral infectivity titer for various contact time periods (TCID50/25 µl) ([2]; 0.5 h) | Viral infectivity titer for various contact time periods (TCID50/25 µl) ([2]; 1 h) | Viral infectivity titer when contacted for an hour (TCID50/25 µl) ([2]; 1 h)
1 | CCCCOC(=O)c1ccc(O)cc1 [butyl ester, butyl p-oxybenzoate] | ≤3.2 x 10^1 TCID50/25 µl | ≤3.2 x 10^0 TCID50/25 µl | 1.8 x 10^4 TCID50/25 µl | 5.6 x 10^3 TCID50/25 µl | 3.2 x 10^0 TCID50/25 µl | 3.2 x 10^0 TCID50/25 µl | 3.2 x 10^0 TCID50/25 µl | 3.2 x 10^0 TCID50/25 µl | 3.2 x 10^3 TCID50/25 µl | 17000 mg/kg |  |  |  | 
2 | CCOC(=O)c1ccc(O)cc1 [ethyl ester, ethyl p-oxybenzoate] |  |  |  |  |  |  |  |  |  | 5000 mg/kg | potent inactivation effect |  |  | 
3 | CCO [70% Ethanol, Ethanol, reference compound] | 3.2 x 10^4 TCID50/25 µl | 5.6 x 10^4 TCID50/25 µl | 1.0 x 10^5 TCID50/25 µl | 3.2 x 10^4 TCID50/25 µl | 3.2 x 10^4 TCID50/25 µl | 1.8 x 10^4 TCID50/25 µl | 1.8 x 10^3 TCID50/25 µl | 5.6 x 10^4 TCID50/25 µl |  |  |  | 3.2 x 10^3 TCID50/25 µl | 5.6 x 10^3 TCID50/25 µl | 3.2 x 10^3 TCID50/25 µl
4 | CCCOC(=O)c1ccc(O)cc1 [propyl ester, Propyl p-oxybenzoate] |  |  |  |  |  |  |  |  |  | 8000 mg/kg |  |  |  | 
